Measured values from patent US20120022142A1, “RNA Interference Mediated Inhibition of Signal Transducer and Activator of Transcription 1 (STAT1) Gene Expression Using Short Interfering Nucleic Acid (siNA)” (Merck Sharp & Dohme Corp., priority 2009, published 2012).
[invAb] = inverted abasic unit; d = 2'-deoxy (DNA); m = 2'-O-methyl; r = 2'-OH (RNA); f = 2'-fluoro

Experiments:
STAT1 mouse mRNA = assay: Initial screen of siNAs: STAT1 mRNA knock-down in NIH 3T3 cells (96-well transfection, Taqman RT-PCR); format: cell-based; details: 10 nM siNA, 24 hrs, normalized against GAPDH, average of 2 experiments
Experimental: NIH 3T3 (mouse; ATCC cat# CRL-1658): Cells were cultured at 37° C. in the presence of 5% CO2 and grown in Dulbecco's modified Eagle's medium (DMEM) with 4 mM L-glutamine adjusted to contain 1.5 g/L sodium bicarbonate and 4.5 g/L glucose and supplemented with fetal bovine serum at a final concentration of 10%, 100 μg/mL of streptomycin, and 100 U/mL penicillin.
(§1) Cells were plated in all wells of a tissue-culture treated, 96-well plate at a final count of 5000 cells/well in 100 μL of the appropriate culture media. The cells were cultured for 24 hours after plating at 37° C. in the presence of 5% CO2.
(§2) After 24 hours, complexes containing siNA and RNAiMax were created as follows: A solution of RNAiMax diluted 33-fold in OPTI-MEM was prepared. In parallel, solutions of the siNAs for testing were prepared to a final concentration of 120 nM in OPTI-MEM. After incubation of RNAiMax/OPTI-MEM solution at room temperature for 5 min, an equal volume of the siNA solution and the RNAiMax solution were added together for each of the siNAs.
(§3) This solution was incubated at room temperature for 20 minutes. After incubation, 20 uL of the solution was added to each of the relevant wells. The final concentration of siNA in each well was 10 nM and the final volume of RNAiMax in each well was 0.3 ul.
(§4) The time of incubation with the RNAiMax-siNA complexes was 24 hours and there was no change in media between transfection and harvesting, unless otherwise indicated.
(§5) RNA was extracted from a 96-well plate using the TaqMan® Gene Expression Cells-to-CT™ Kit (Cat# 4399002) with a modified protocol. Briefly, a 60 uL (1 plate) or 110 uL (2 plates) of the Lysis Solution with DNase I was dispensed into each well of the Lysis Buffer Plate (twin.tec full skirt plate). The lysis buffer and stop plates were stored at 4° C. until the cells were washed.
(§6) The culture medium was aspirated and discarded from the wells of the culture plate. 50 uL of chilled DPBS was added to each well, then aspirated and discarded. The lysis was performed automatically using a BioMek FX instrument and method. After the Biomek method was completed, the lysis plate was incubated for 2 min at room temperature. The lysis plate can be stored for 2 hours at 4° C., or at −20° C. or −80° C. for two months.
(§7) Each well of the reverse transcription plate required 10 uL of 2× reverse transcriptase Buffer, 1 uL of 20× reverse transcription enzyme and 2 uL of nuclease-free water. The reverse transcription master mix was prepared by mixing 2× reverse transcription buffer, 20× reverse transcription enzyme mix, and nuclease-free water. 13 uL of the reverse transcription master mix was dispensed into each well of the reverse transcription plate (semi-skirted). A separate reverse transcription plate was prepared for each cell plate. The plate was loaded onto a Biomek NX or Biomek FX Dual-96 and the Biomek method was run. The program is programmed to automatically added 7 uL of lysate from the cell lysis procedure described above into each well of the reverse transcription plate. The plate is sealed and spun on a centrifuge (1000 rpm for 30 seconds) to settle the contents to the bottom of the reverse transcription plate. The plate is placed in a thermocycler at 37° C. for 60 min, 95° C. for 5 min, and 4° C. until the plate is removed from the thermocycler. Upon removal, if not used immediately, the plate was frozen at −20° C.
(§8) A series of probes and primers were used to detect the various mRNA transcripts of the genes of β-Actin (human cell line only), and of STAT1 and GAPDH in mouse and human cell lines. All Taqman probes and primers for the experiments here-in described were supplied as pre-validated sets by Applied Biosystems, Inc. (see Table 2).
The assays were performed on an ABI 7900 instrument, according to the manufacturer's instructions. […]

STAT1 human mRNA = assay: Initial screen of siNAs: STAT1 mRNA knock-down in A549 cells (96-well transfection, Taqman RT-PCR); format: cell-based; details: 10 nM siNA, 24 hrs, normalized against GAPDH, average of 2 experiments
Experimental: A549 (human; ATCC cat# CCL-185): Cells were cultured at 37° C. in the presence of 5% CO2 and grown in Ham's F12K medium with 2 mM L-glutamine adjusted to contain 1.5 g/L sodium bicarbonate and supplemented with fetal bovine serum at a final concentration of 10% and 100 μg/mL of streptomycin and 100 U/mL penicillin.
as §1, §2, §3, §4, §5, §6, §7, §8
The assays were performed on an ABI 7900 instrument, according to the manufacturer's instructions.
Within each experiment, the baseline was set in the exponential phase of the amplification curve, and based on the intersection point of the baselines with the amplification curve, a Ct value was assigned by the instrument. […]

| Substance | % KD Mouse (STAT1 mouse mRNA) [%] | % KD Human (STAT1 human mRNA) [%] |
| --- | --- | --- |
| 25360-DC: STAT1 siNA duplex, human target site 1793; modified strands SEQ ID NO: 57 and 58 (chain 1 CCAGGAAUCUGUCCUUCUUTT; chain 2 AAGAAGGACAGAUUCCUGGUU; chain 1: DNA at AGT, 2'-fluoro at CU, [invAb] at 5' end, 3' end, backbone not given here; chain 2: sugars from the 5' end rrrmmmmmfmmmfffffmmmm, backbone not given here) | 73 | 90 |
| 25361-DC: STAT1 siNA duplex, human target site 1104; modified strands SEQ ID NO: 59 and 60 (chain 1 GCCCAAUGCUUGCUUGGAUTT; chain 2 AUCCAAGCAAGCAUUGGGCUU; chain 1: DNA at AGT, 2'-fluoro at CU, [invAb] at 5' end, 3' end, backbone not given here; chain 2: sugars from the 5' end rrrfmmmfmmmfmffmmmfmm, backbone not given here) | 35 | 92 |
| 25362-DC: STAT1 siNA duplex, human target site 222; modified strands SEQ ID NO: 61 and 62 (chain 1 CUCGAGAGCUGUCUAGGUUTT; chain 2 AACCUAGACAGCUCUCGAGUU; chain 1: DNA at AGT, 2'-fluoro at CU, [invAb] at 5' end, 3' end, backbone not given here; chain 2: sugars from the 5' end rrrffmmmfmmfffffmmmmm, backbone not given here) | 45 | 87 |
| 25363-DC: STAT1 siNA duplex, human target site 480; modified strands SEQ ID NO: 63 and 64 (chain 1 GGAGCACGCUGCCAAUGAUTT; chain 2 AUCAUUGGCAGCGUGCUCCUU; chain 1: DNA at AGT, 2'-fluoro at CU, [invAb] at 5' end, 3' end, backbone not given here; chain 2: sugars from the 5' end rrrmffmmfmmfmfmffffmm, backbone not given here) | 72 | 83 |
| 25364-DC: STAT1 siNA duplex, human target site 674; modified strands SEQ ID NO: 65 and 66 (chain 1 GUCUGAAGGAAGAAAGGAATT; chain 2 UUCCUUUCUUCCUUCAGACUU; chain 1: sugars from the 5' end d1 f3 d17, [invAb] at 5' end, 3' end, backbone not given here; chain 2: sugars from the 5' end r3 f12 m3 f1 m2, backbone not given here) | 83 | 88 |
| 25365-DC: STAT1 siNA duplex, human target site 431; modified strands SEQ ID NO: 67 and 68 (chain 1 CCAUGGAAAUCAGACAGUATT; chain 2 UACUGUCUGAUUUCCAUGGUU; chain 1: DNA at AGT, 2'-fluoro at CU, [invAb] at 5' end, 3' end, backbone not given here; chain 2: sugars from the 5' end rrrfmfffmmfffffmfmmmm, backbone not given here) | 80 | 87 |
| 25366-DC: STAT1 siNA duplex, human target site 965; modified strands SEQ ID NO: 69 and 70 (chain 1 UGCUUGACAAUAAGAGAAATT; chain 2 UUUCUCUUAUUGUCAAGCAUU; chain 1: DNA at AGT, 2'-fluoro at CU, [invAb] at 5' end, 3' end, backbone not given here; chain 2: sugars from the 5' end rrrfffffmffmffmmmfmmm, backbone not given here) | 86 | 88 |
| 25370-DC: STAT1 siNA duplex, human target site 785; modified strands SEQ ID NO: 77 and 78 (chain 1 AAGUCAGAAAUGUGAAGGATT; chain 2 UCCUUCACAUUUCUGACUUUU; chain 1: DNA at AGT, 2'-fluoro at CU, [invAb] at 5' end, 3' end, backbone not given here; chain 2: sugars from the 5' end rrrfffmfmfffffmmfffmm, backbone not given here) | 76 | 84 |
| 25371-DC: STAT1 siNA duplex, human target site 432; modified strands SEQ ID NO: 79 and 80 (chain 1 CAUGGAAAUCAGACAGUACTT; chain 2 GUACUGUCUGAUUUCCAUGUU; chain 1: DNA at AGT, 2'-fluoro at CU, [invAb] at 5' end, 3' end, backbone not given here; chain 2: sugars from the 5' end rrrffmfffmmfffffmfmmm, backbone not given here) | 85 | 89 |
| 25373-DC: STAT1 siNA duplex, human target site 2160; modified strands SEQ ID NO: 83 and 84 (chain 1 CAGUGAGAGCUCCCGGGAATT; chain 2 UUCCCGGGAGCUCUCACUGUU; chain 1: DNA at AGT, 2'-fluoro at CU, [invAb] at 5' end, 3' end, backbone not given here; chain 2: sugars from the 5' end rrrffmmmmmfffffmffmmm, backbone not given here) | 24 | 30 |
